In US20240239775A1, “FXR REGULATOR, PREPARATION METHOD THEREFOR, PHARMACEUTICAL COMPOSITION THEREOF AND USE THEREOF” (QINGDAO RUIJI MEDICAL TECHNOLOGY CO., LTD., priority 2021, published 2024):

What was measured:
FXR = target: T1, FXR (Homo sapiens, UniProt Q96RI1); experiment: FXR antagonist screening by TR-FRET (LanthaScreen TR-FRET FXR co-activation assay kit); format: biochemical; conditions: Table 1.1, FXR antagonistic activity; TR-FRET with CDCA; geometric means of at least two independent runs
T1 construct: 5 μL of 20 nM FXR-LBD Complete Coregulator buffer G; purchased ThermoFisher PV4833
T1 sequence (Q96RI1 262-486 limits assumed): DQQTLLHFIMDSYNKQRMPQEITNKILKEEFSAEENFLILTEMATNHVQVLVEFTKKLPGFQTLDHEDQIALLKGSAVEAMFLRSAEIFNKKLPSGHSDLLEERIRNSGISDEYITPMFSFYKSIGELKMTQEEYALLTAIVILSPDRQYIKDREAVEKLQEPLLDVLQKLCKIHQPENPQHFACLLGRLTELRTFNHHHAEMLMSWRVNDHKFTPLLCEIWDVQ
How it was run: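 FXR-LBD (20 nM working solution) mixed with compound, CDCA (200 μM working solution) as agonist, Fluorescein-SRC2-2 and Tb-anti-GST antibody in Coregulator buffer G; 10 h at room temperature. Coactivator recruitment read by TR-FRET, triplicate wells.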

## Cc1c(C(=O)O)oc2ccc(S(=O)(=O)N(CCc3ccccc3)c3ccc(N4CCN(C(=O)CC(C)(C)C)CC4)cc3)cc12 [Example F27-S66, 3-methyl-5-(N-(4-(4-(3,3-dimethylbutyryl)piperazin-1-yl)phenyl)-N-phenethylsulfamoyl)benzofuran-2-carboxylic acid]
other
  melting point: > 380 °C (dec.)
FXR
  IC50: 10 to 50 µM

## CCCOC(=O)N1CCN(c2ccc(N(CCc3ccccc3)S(=O)(=O)c3ccc4oc(C(=O)O)c(C)c4c3)cc2)CC1 [Example F27-S67, 3-methyl-5-(N-(4-(4-(propoxycarbonyl)piperazin-1-yl)phenyl)-N-phenethylsulfamoyl)benzofuran-2-carboxylic acid]
other
  melting point: > 380 °C (dec.)
FXR
  IC50: 10 to 50 µM

## CC(=O)N1CCN(c2ccc(N(CCc3ccccc3)S(=O)(=O)c3ccc4oc(C(=O)O)c(C)c4c3)cc2)CC1 [Example F27-S68, 3-methyl-5-(N-(4-(4-acetylpiperazin-1-yl)phenyl)-N-phenethylsulfamoyl)benzofuran-2-carboxylic acid]
other
  melting point: 183 to 184 °C
FXR
  IC50: 50 to 100 µM

## Cc1c(C(=O)O)oc2ccc(S(=O)(=O)N(CCc3ccccc3)c3ccc(N4CCN(C(=O)c5ccccc5)CC4)cc3)cc12 [Example F27-S69, 3-methyl-5-(N-(4-(4-benzoylpiperazin-1-yl)phenyl)-N-phenethylsulfamoyl)benzofuran-2-carboxylic acid]
other
  melting point: > 380 °C (dec.)
FXR
  IC50: 10 to 50 µM

## Cc1c(C(=O)O)oc2ccc(S(=O)(=O)N(CCc3ccccc3)c3ccc(N4CCN(Cc5ccccc5)CC4)cc3)cc12 [Example F27-S70, 3-methyl-5-(N-(4-(4-benzylpiperazin-1-yl)phenyl)-N-phenethylsulfamoyl)benzofuran-2-carboxylic acid]
other
  melting point: > 380 °C (dec.)
FXR
  IC50: 10 to 50 µM

## Cc1c(C(=O)O)oc2ccc(S(=O)(=O)N(CCc3ccccc3)c3ccc(N4CCN(C(=O)N(C)C)CC4)cc3)cc12 [Example F27-S71, 3-methyl-5-(N-(4-(4-(dimethylcarbamoyl)piperazin-1-yl)phenyl)-N-phenethylsulfamoyl)benzofuran-2-carboxylic acid]
other
  melting point: 192 to 193 °C
FXR
  IC50: 50 to 100 µM

## Cc1c(C(=O)O)oc2ccc(S(=O)(=O)N(CCc3ccccc3)c3ccc(C4CCN(C(=O)OC(C)(C)C)CC4)cc3)cc12 [Example F27-S73, 3-methyl-5-(N-(4-(1-(tert-butoxycarbonyl)piperidin-4-yl)phenyl)-N-phenethylsulfamoyl)benzofuran-2-carboxylic acid]
other
  melting point: > 380 °C (dec.)
FXR
  IC50: 0.1 to 10 µM

## Cc1c(C(=O)O)oc2ccc(S(=O)(=O)N(CCc3ccccc3)c3ccc(N4CCN(C(=O)OC(C)(C)C)CC4)c(C(F)(F)F)c3)cc12 [Example F27-S74, 3-methyl-5-(N-(4-(4-(tert-butoxycarbonyl)piperazin-1-yl)-3-(trifluoromethyl)phenyl)-N-phenethylsulfamoyl)benzofuran-2-carboxylic acid]
other
  melting point: 215 to 216 °C
FXR
  IC50: 0.1 to 10 µM

## Cc1c(C(=O)O)oc2ccc(S(=O)(=O)N(CCc3ccccc3)c3ccc(N4CCN(C(=O)OC(C)(C)C)CC4)nc3)cc12 [Example F27-S75, 3-methyl-5-(N-(6-(4-(tert-butoxycarbonyl)piperazin-1-yl)pyridin-3-yl)-N-phenethylsulfamoyl)benzofuran-2-carboxylic acid]
other
  melting point: > 380 °C (dec.)
FXR
  IC50: 10 to 50 µM

## Cc1c(C(=O)O)oc2ccc(S(=O)(=O)N(CCc3ccccc3)c3ccc(CN4CCN(C(=O)OC(C)(C)C)CC4)cc3)cc12 [Example F27-S76, 3-methyl-5-(N-(4-((4-(tert-butoxycarbonyl)piperazin-1-yl)methyl)phenyl)-N-phenethylsulfonamide)benzofuran-2-carboxylic acid]
other
  melting point: 234 to 235 °C
FXR
  IC50: 10 to 50 µM

## Cc1c(C(=O)O)oc2ccc(S(=O)(=O)N(CCc3ccccc3)c3ccccc3N3CCN(C(=O)OC(C)(C)C)CC3)cc12 [Example F27-S77, 3-methyl-5-(N-(2-(4-(tert-butoxycarbonyl)piperazin-1-yl)phenyl)-N-phenethylsulfamoyl)benzofuran-2-carboxylic acid]
other
  melting point: 168 to 169 °C
FXR
  IC50: 0.1 to 10 µM

## Cc1c(C(=O)O)oc2ccc(S(=O)(=O)N(CCc3ccccc3)c3cccc(N4CCN(C)CC4)c3)cc12 [Example F27-S78, 3-methyl-5-(N-(3-(4-methylpiperazin-1-yl)phenyl)-N-phenethylsulfamoyl)benzofuran-2-carboxylic acid]
other
  melting point: 232 to 233 °C
FXR
  IC50: 50 to 100 µM

## Cc1c(C(=O)O)oc2ccc(S(=O)(=O)N(CCc3ccccc3)Cc3ccc(N4CCOCC4)cc3)cc12 [Example F27-S79]
other
  melting point: > 380 °C (dec.)
FXR
  IC50: 50 to 100 µM

## Cc1c(C(=O)O)oc2ccc(S(=O)(=O)N(CCc3ccccc3)Cc3ccc(-c4ccccc4)cc3)cc12 [Example F27-S82, 3-methyl-5-(N-([1,1′-biphenyl]-4-ylmethyl)-N-phenethylsulfamoyl)benzofuran-2-carboxylic acid]
other
  melting point: > 380 °C (dec.)
FXR
  IC50: 50 to 100 µM

## Cc1c(C(=O)O)oc2ccc(S(=O)(=O)N(CCc3ccccc3)Cc3ccc(-c4ccccc4C#N)cc3)cc12 [Example F27-S83]
other
  melting point: 197 to 198 °C
FXR
  IC50: 10 to 50 µM

## Cc1c(C(=O)O)oc2ccc(S(=O)(=O)N(CCc3ccccc3)Cc3ccc(-c4ccccc4C(=O)OC(C)(C)C)cc3)cc12 [Example F27-S84, 3-methyl-5-(N-((2′-(tert-butoxycarbonyl)-[1,1′-biphenyl]-4-yl)methyl)-N-phenethylsulfamoyl)benzofuran-2-carboxylic acid]
other
  melting point: 197 to 198 °C
FXR
  IC50: 10 to 50 µM

## Cc1c(C(=O)O)oc2ccc(S(=O)(=O)N(CCc3ccccc3)Cc3ccc(C(=O)c4ccccc4)cc3)cc12 [Example F27-S85, 3-methyl-5-(N-(4-benzoylbenzyl)-N-phenethylsulfamoyl)benzofuran-2-carboxylic acid]
other
  melting point: 192 to 193 °C
FXR
  IC50: 10 to 50 µM

## Cc1c(C(=O)O)oc2ccc(S(=O)(=O)N(CCc3ccccc3)Cc3cccc(N4CCN(C(=O)OC(C)(C)C)CC4)c3)cc12 [Example F27-S88, 3-methyl-5-(N-(3-(4-(tert-butoxycarbonyl)piperazin-1-yl)benzyl)-N-phenethylsulfamoyl)benzofuran-2-carboxylic acid]
other
  melting point: 104 to 105 °C
FXR
  IC50: 0.1 to 10 µM

## Cc1c(C(=O)O)oc2ccc(S(=O)(=O)N(CCc3ccccc3)c3ccccc3N3CCNCC3)cc12 [Example F27-S89, 3-methyl-5-(N-phenethyl-N-(2-(piperazin-1-yl)phenyl)sulfamoyl)benzofuran-2-carboxylic acid]
other
  melting point: 172 to 173 °C
FXR
  IC50: 50 to 100 µM

## Cc1c(C(=O)O)oc2ccc(S(=O)(=O)N(CCc3ccccc3)c3ccccc3N3CC[N+](C)(C)CC3)cc12 [Example F27-S90, 4-(2-((2-carboxy-3-methyl-N-phenethylbenzofuran)-5-sulfonylamino)phenyl)-1,1-dimethylpiperazin-1-ium]
other
  melting point: 246 to 247 °C
FXR
  IC50: 50 to 100 µM

## CC(=O)N1CCN(c2ccccc2N(CCc2ccccc2)S(=O)(=O)c2ccc3oc(C(=O)O)c(C)c3c2)CC1 [Example F27-S91, 3-methyl-5-(N-(2-(4-acetylpiperazin-1-yl)phenyl)-N-phenethylsulfamoyl)benzofuran-2-carboxylic acid]
other
  melting point: 196 to 197 °C
FXR
  IC50: 50 to 100 µM

## Cc1c(C(=O)O)oc2ccc(S(=O)(=O)N(CCc3ccccc3)c3ccccc3N3CCN(C(=O)N(C)C)CC3)cc12 [Example F27-S92, 3-methyl-5-(N-(2-(4-(dimethylcarbamoyl)piperazin-1-yl)phenyl)-N-phenethylsulfamoyl)benzofuran-2-carboxylic acid]
other
  melting point: > 380 °C (dec.)
FXR
  IC50: 10 to 50 µM

## Cc1c(C(=O)O)oc2ccc(S(=O)(=O)N(CCc3ccccc3)c3ccccc3N3CCN(S(C)(=O)=O)CC3)cc12 [Example F27-S93, 3-methyl-5-(N-(2-(4-(methylsulfonyl)piperazin-1-yl)phenyl)-N-phenethylsulfamoyl)benzofuran-2-carboxylic acid]
other
  melting point: 144 to 145 °C
FXR
  IC50: 10 to 50 µM

## Cc1c(C(=O)O)oc2ccc(S(=O)(=O)N(CCc3ccccc3)c3ccccc3N3CCN(C(=O)CC(C)(C)C)CC3)cc12 [Example F27-S94]
other
  melting point: 191 to 192 °C
FXR
  IC50: 0.1 to 10 µM

## Cc1c(C(=O)O)oc2ccc(S(=O)(=O)N(CCc3ccccc3)c3ccccc3N3CCN(Cc4ccccc4)CC3)cc12 [Example F27-S95]
other
  melting point: 161 to 162 °C
FXR
  IC50: 10 to 50 µM

## Cc1c(C(=O)O)oc2ccc(S(=O)(=O)N(CCc3ccccc3)Cc3ccccc3N3CCNCC3)cc12 [Example F27-S97, 3-methyl-5-(N-(2-(piperazin-1-yl)benzyl)-N-phenethylsulfamoyl)benzofuran-2-carboxylic acid]
other
  melting point: 223 to 224 °C
FXR
  IC50: 50 to 100 µM

## Cc1c(C(=O)O)oc2ccc(S(=O)(=O)N(CCc3ccccc3)Cc3ccccc3N3CC[N+](C)(C)CC3)cc12 [Example F27-S99, 4-(2-(((2-carboxy-3-methyl-N-phenethylbenzofuran)-5-sulfonamido)methyl)phenyl)-1,1-dimethylpiperazin-1-ium]
other
  melting point: 143 to 144 °C
FXR
  IC50: 50 to 100 µM

## CC(=O)N1CCN(c2ccccc2CN(CCc2ccccc2)S(=O)(=O)c2ccc3oc(C(=O)O)c(C)c3c2)CC1 [Example F27-S100, 3-methyl-5-(N-(2-(4-acetylpiperazin-1-yl)benzyl)-N-phenethylsulfamoyl)benzofuran-2-carboxylic acid]
other
  melting point: 236 to 237 °C
FXR
  IC50: 10 to 50 µM
